The experiment has as its system receptor labeled by the radioiodinated analogue of 1 (4, [125I]-YLFQPQRF-NH2); neuropeptide FF receptor. The experiment in a line: Competitive radioligand binding against 4 ([125I]Y8F-amide). The settings on record: mixture-based positional scanning; difference from averaged radioligand displacement of whole library (0); about 80 a.u. = 10-fold change in Ki.

Results on 38 compounds are retold here after patent publication US6960574B2, “Antagonists of RF-amide neuropeptides” (University of Florida, priority 2002, dated 2005).

The structures appear in SMILES notation. Peptide text beside a SMILES is read from it. * marks the point of attachment. Dansyl = CN(C)c1cccc2c(S(=O)(=O)*)cccc12

Take `CN(C)c1cccc2c(S(=O)(=O)N[C@@H](CC(N)=O)C(=O)N[C@@H](Cc3c[nH]c4ccccc34)C(=O)N[C@@H](CCCNC(=N)N)C(N)=O)cccc12` [Dansyl-NWR-amide] (Dansyl-Asn-Trp-Arg-NH2): the “Relative Binding Index (RBI)” value is listed as 22 a.u. As to `CN(C)c1cccc2c(S(=O)(=O)N[C@@H](CC(N)=O)C(=O)N[C@@H](Cc3ccc(O)cc3)C(=O)N[C@@H](CCCNC(=N)N)C(N)=O)cccc12` [Dansyl-NYR-amide] (Dansyl-Asn-Tyr-Arg-NH2), the “Relative Binding Index (RBI)” value amounted to 12 a.u. Take `C[C@H](NC(=O)[C@@H]1CCCN1S(=O)(=O)c1cccc2c(N(C)C)cccc12)C(=O)N[C@@H](CCCNC(=N)N)C(N)=O` [Dansyl-PAR-amide] (Dansyl-Pro-Ala-Arg-NH2): the “Relative Binding Index (RBI)” value is listed as −97 a.u.

Consider `CN(C)c1cccc2c(S(=O)(=O)N3CCC[C@H]3C(=O)N[C@@H](CC(=O)O)C(=O)N[C@@H](CCCNC(=N)N)C(N)=O)cccc12` [Dansyl-PDR-amide] (Dansyl-Pro-Asp-Arg-NH2), for which the “Relative Binding Index (RBI)” value was −66 a.u. Then `CN(C)c1cccc2c(S(=O)(=O)N3CCC[C@H]3C(=O)N[C@@H](CCC(=O)O)C(=O)N[C@@H](CCCNC(=N)N)C(N)=O)cccc12` [Dansyl-PER-amide] (Dansyl-Pro-Glu-Arg-NH2), with −48 a.u; and `CN(C)c1cccc2c(S(=O)(=O)N3CCC[C@H]3C(=O)N[C@@H](Cc3ccccc3)C(=O)N[C@@H](CCCNC(=N)N)C(N)=O)cccc12` [Dansyl-PFR-amide] (Dansyl-Pro-Phe-Arg-NH2), with −49 a.u. On to `CN(C)c1cccc2c(S(=O)(=O)N3CCC[C@H]3C(=O)NCC(=O)N[C@@H](CCCNC(=N)N)C(N)=O)cccc12` [Dansyl-PGR-amide] (Dansyl-Pro-Gly-Arg-NH2), for which the “Relative Binding Index (RBI)” value was −43 a.u.

For `CN(C)c1cccc2c(S(=O)(=O)N3CCC[C@H]3C(=O)N[C@@H](Cc3cnc[nH]3)C(=O)N[C@@H](CCCNC(=N)N)C(N)=O)cccc12` [Dansyl-PHR-amide] (Dansyl-Pro-His-Arg-NH2), the “Relative Binding Index (RBI)” value is −54 a.u. In the case of `CC[C@H](C)[C@H](NC(=O)[C@@H]1CCCN1S(=O)(=O)c1cccc2c(N(C)C)cccc12)C(=O)N[C@@H](CCCNC(=N)N)C(N)=O` [Dansyl-PIR-amide] (Dansyl-Pro-Ile-Arg-NH2), the “Relative Binding Index (RBI)” value is listed as −41 a.u. Regarding `CN(C)c1cccc2c(S(=O)(=O)N3CCC[C@H]3C(=O)N[C@@H](CCCCN)C(=O)N[C@@H](CCCNC(=N)N)C(N)=O)cccc12` [Dansyl-PKR-amide] (Dansyl-Pro-Lys-Arg-NH2), the “Relative Binding Index (RBI)” value is −50 a.u. Take `CC(C)C[C@H](NC(=O)[C@@H]1CCCN1S(=O)(=O)c1cccc2c(N(C)C)cccc12)C(=O)N[C@@H](CCCNC(=N)N)C(N)=O` [Dansyl-PLR-amide] (Dansyl-Pro-Leu-Arg-NH2): the “Relative Binding Index (RBI)” value is −56 a.u. Consider `CSCC[C@H](NC(=O)[C@@H]1CCCN1S(=O)(=O)c1cccc2c(N(C)C)cccc12)C(=O)N[C@@H](CCCNC(=N)N)C(N)=O` [Dansyl-PMR-amide] (Dansyl-Pro-Met-Arg-NH2), for which the “Relative Binding Index (RBI)” value is listed as −48 a.u.

As to `CN(C)c1cccc2c(S(=O)(=O)N3CCC[C@H]3C(=O)N[C@@H](CC(N)=O)C(=O)N[C@@H](CCCNC(=N)N)C(N)=O)cccc12` [Dansyl-PNR-amide] (Dansyl-Pro-Asn-Arg-NH2), the “Relative Binding Index (RBI)” value is −47 a.u. Turning to `CN(C)c1cccc2c(S(=O)(=O)N3CCC[C@H]3C(=O)N3CCC[C@H]3C(=O)N[C@@H](CCCNC(=N)N)C(N)=O)cccc12` [Dansyl-PPR-amide] (Dansyl-Pro-Pro-Arg-NH2), the “Relative Binding Index (RBI)” value was −45 a.u.

Regarding `CN(C)c1cccc2c(S(=O)(=O)N3CCC[C@H]3C(=O)N[C@@H](CCCNC(=N)N)C(=O)N[C@@H](CCCNC(=N)N)C(N)=O)cccc12` [Dansyl-PRR-amide], the “Relative Binding Index (RBI)” value was −49 a.u.

For the compound `CN(C)c1cccc2c(S(=O)(=O)N3CCC[C@H]3C(=O)N[C@@H](CO)C(=O)N[C@@H](CCCNC(=N)N)C(N)=O)cccc12` [Dansyl-PSR-amide] (Dansyl-Pro-Ser-Arg-NH2), the “Relative Binding Index (RBI)” value is given as −27 a.u. Consider `C[C@@H](O)[C@H](NC(=O)[C@@H]1CCCN1S(=O)(=O)c1cccc2c(N(C)C)cccc12)C(=O)N[C@@H](CCCNC(=N)N)C(N)=O` [Dansyl-PTR-amide] (Dansyl-Pro-Thr-Arg-NH2), for which the “Relative Binding Index (RBI)” value is −42 a.u.

Consider `CC(C)[C@H](NC(=O)[C@@H]1CCCN1S(=O)(=O)c1cccc2c(N(C)C)cccc12)C(=O)N[C@@H](CCCNC(=N)N)C(N)=O` [Dansyl-PVR-amide] (Dansyl-Pro-Val-Arg-NH2), for which the “Relative Binding Index (RBI)” value is on record as −53 a.u. For the compound `CN(C)c1cccc2c(S(=O)(=O)N3CCC[C@H]3C(=O)N[C@@H](Cc3c[nH]c4ccccc34)C(=O)N[C@@H](CCCNC(=N)N)C(N)=O)cccc12` [Dansyl-PWR-amide] (Dansyl-Pro-Trp-Arg-NH2), the “Relative Binding Index (RBI)” value is reported as −39 a.u. In the case of `C[C@H](NC(=O)[C@H](CCC(N)=O)NS(=O)(=O)c1cccc2c(N(C)C)cccc12)C(=O)N[C@@H](CCCNC(=N)N)C(N)=O` [Dansyl-QAR-amide] (Dansyl-Gln-Ala-Arg-NH2), the “Relative Binding Index (RBI)” value is −28 a.u. Consider `CN(C)c1cccc2c(S(=O)(=O)N[C@@H](CCC(N)=O)C(=O)N[C@@H](CC(=O)O)C(=O)N[C@@H](CCCNC(=N)N)C(N)=O)cccc12` [Dansyl-QDR-amide] (Dansyl-Gln-Asp-Arg-NH2), for which the “Relative Binding Index (RBI)” value amounted to 3 a.u. Take `CN(C)c1cccc2c(S(=O)(=O)N[C@@H](CCC(N)=O)C(=O)N[C@@H](CCC(=O)O)C(=O)N[C@@H](CCCNC(=N)N)C(N)=O)cccc12` [Dansyl-QER-amide] (Dansyl-Gln-Glu-Arg-NH2): the “Relative Binding Index (RBI)” value is on record as 22 a.u. Take `CN(C)c1cccc2c(S(=O)(=O)N[C@@H](CCC(N)=O)C(=O)N[C@@H](Cc3ccccc3)C(=O)N[C@@H](CCCNC(=N)N)C(N)=O)cccc12` [Dansyl-QFR-amide]: the “Relative Binding Index (RBI)” value was 20 a.u. As to `CN(C)c1cccc2c(S(=O)(=O)N[C@@H](CCC(N)=O)C(=O)NCC(=O)N[C@@H](CCCNC(=N)N)C(N)=O)cccc12` [Dansyl-QGR-amide] (Dansyl-Gln-Gly-Arg-NH2), the “Relative Binding Index (RBI)” value stood at 27 a.u. For the compound `CN(C)c1cccc2c(S(=O)(=O)N[C@@H](CCC(N)=O)C(=O)N[C@@H](Cc3c[nH]cn3)C(=O)N[C@@H](CCCNC(=N)N)C(N)=O)cccc12` [Dansyl-QHR-amide] (Dansyl-Gln-His-Arg-NH2), the “Relative Binding Index (RBI)” value is reported as 16 a.u. `CC[C@H](C)[C@H](NC(=O)[C@H](CCC(N)=O)NS(=O)(=O)c1cccc2c(N(C)C)cccc12)C(=O)N[C@@H](CCCNC(=N)N)C(N)=O` [Dansyl-QIR-amide] (Dansyl-Gln-Ile-Arg-NH2): the “Relative Binding Index (RBI)” value came to 28 a.u. On to `CN(C)c1cccc2c(S(=O)(=O)N[C@@H](CCC(N)=O)C(=O)N[C@@H](CCCCN)C(=O)N[C@@H](CCCNC(=N)N)C(N)=O)cccc12` [Dansyl-QKR-amide] (Dansyl-Gln-Lys-Arg-NH2), for which the “Relative Binding Index (RBI)” value was determined as 19 a.u.

As to `CC(C)C[C@H](NC(=O)[C@H](CCC(N)=O)NS(=O)(=O)c1cccc2c(N(C)C)cccc12)C(=O)N[C@@H](CCCNC(=N)N)C(N)=O` [Dansyl-QLR-amide] (Dansyl-Gln-Leu-Arg-NH2), the “Relative Binding Index (RBI)” value amounted to 13 a.u. Regarding `CSCC[C@H](NC(=O)[C@H](CCC(N)=O)NS(=O)(=O)c1cccc2c(N(C)C)cccc12)C(=O)N[C@@H](CCCNC(=N)N)C(N)=O` [Dansyl-QMR-amide] (Dansyl-Gln-Met-Arg-NH2), the “Relative Binding Index (RBI)” value worked out at 21 a.u. For `CN(C)c1cccc2c(S(=O)(=O)N[C@@H](CCC(N)=O)C(=O)N[C@@H](CC(N)=O)C(=O)N[C@@H](CCCNC(=N)N)C(N)=O)cccc12` [Dansyl-QNR-amide] (Dansyl-Gln-Asn-Arg-NH2), the “Relative Binding Index (RBI)” value came out at 23 a.u.

With `CN(C)c1cccc2c(S(=O)(=O)N[C@@H](CCC(N)=O)C(=O)N3CCC[C@H]3C(=O)N[C@@H](CCCNC(=N)N)C(N)=O)cccc12` [Dansyl-QPR-amide] (Dansyl-Gln-Pro-Arg-NH2), the “Relative Binding Index (RBI)” value turned out to be 25 a.u. As for `CN(C)c1cccc2c(S(=O)(=O)N[C@@H](CCC(N)=O)C(=O)N[C@@H](CCC(N)=O)C(=O)N[C@@H](CCCNC(=N)N)C(N)=O)cccc12` [Dansyl-QQR-amide, dansyl-Gln-Gln-Arg-NH2] (Dansyl-Gln-Gln-Arg-NH2), the “Relative Binding Index (RBI)” value came out at 35 a.u.

In the case of `CN(C)c1cccc2c(S(=O)(=O)N[C@@H](CCC(N)=O)C(=O)N[C@@H](CCCNC(=N)N)C(=O)N[C@@H](CCCNC(=N)N)C(N)=O)cccc12` [Dansyl-QRR-amide] (Dansyl-Gln-Arg-Arg-NH2), the “Relative Binding Index (RBI)” value is 20 a.u. Then `CN(C)c1cccc2c(S(=O)(=O)N[C@@H](CCC(N)=O)C(=O)N[C@@H](CO)C(=O)N[C@@H](CCCNC(=N)N)C(N)=O)cccc12` [Dansyl-QSR-amide, dansyl-Gln-Ser-Arg-NH2] (Dansyl-Gln-Ser-Arg-NH2), with 42 a.u.

As for `C[C@@H](O)[C@H](NC(=O)[C@H](CCC(N)=O)NS(=O)(=O)c1cccc2c(N(C)C)cccc12)C(=O)N[C@@H](CCCNC(=N)N)C(N)=O` [Dansyl-QTR-amide] (Dansyl-Gln-Thr-Arg-NH2), the “Relative Binding Index (RBI)” value came out at 27 a.u. With `CC(C)[C@H](NC(=O)[C@H](CCC(N)=O)NS(=O)(=O)c1cccc2c(N(C)C)cccc12)C(=O)N[C@@H](CCCNC(=N)N)C(N)=O` [Dansyl-QVR-amide] (Dansyl-Gln-Val-Arg-NH2), the “Relative Binding Index (RBI)” value turned out to be 17 a.u. In the case of `CN(C)c1cccc2c(S(=O)(=O)N[C@@H](CCC(N)=O)C(=O)N[C@@H](Cc3c[nH]c4ccccc34)C(=O)N[C@@H](CCCNC(=N)N)C(N)=O)cccc12` [Dansyl-QWR-amide] (Dansyl-Gln-Trp-Arg-NH2), the “Relative Binding Index (RBI)” value is 30 a.u. For the compound `CN(C)c1cccc2c(S(=O)(=O)N[C@@H](CCC(N)=O)C(=O)N[C@@H](Cc3ccc(O)cc3)C(=O)N[C@@H](CCCNC(=N)N)C(N)=O)cccc12` [Dansyl-QYR-amide] (Dansyl-Gln-Tyr-Arg-NH2), the “Relative Binding Index (RBI)” value came to 20 a.u.
